From PubChem BioAssay (NCI) come the findings set out here.

Holding throughout (test): NCI tumour cell line growth inhibition, 48 h
The subject of assay [1] is DMS 273 small cell lung.
Assay [2] concerns HOP-18 NSCLC.
Assay [3] has as its system RXF-631 renal.
Assay [4] has as its system XF 498 CNS.
Assay [5] deals with DMS 114 small cell lung.
Assay [6] concerns DLD-1 colon.
Assay [7] has as its system SNB-78 CNS.
The test system of assay [8] is KM20L2 colon.
Assay [9] concerns P388/ADR leukemia.
Assay [10] relates to MDA-N.

Where “and” joins values, the source holds several entries; their conditions need not be identical. Identical values can stand only once.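 48-hour exposure; five concentrations; linearly interpolated endpoints. At the GI50, growth is halved. TGI denotes the concentration required for complete inhibition of growth.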

Regarding `CN(C)C(=O)Oc1c(-c2ccccc2)c(=O)n2c3ccccc3n3c(=O)n(C)c(=O)c1c23`, the TGI in assay [1], in assay [2], in assay [3], in assay [4], in assay [5] and in [6] was > 100 µM each time. In addition, the TGI in assay [7] is > 100 µM.

For `COC(=O)c1nn(C(=N)c2ccc(Cl)cc2)c2c1CCC2`, the TGI in assay [1], in assay [4], in assay [5], in assay [6], in assay [7] and in [8] was > 100 µM each time.

As for `O=[N+]([O-])c1ccc(C=NC23CC4CC(CC(C4)C2)C3)cc1`, the TGI in assay [1], in [2], in [3], in [4], in assay [5] and in [6] was > 100 µM in each case. The TGI in assay [7] and in [8] was > 100 µM each time.

As to `Cc1ccc(C(=O)CC2=Nc3nnc(CCCCCCCc4nnc5n4C(=O)C(CC(=O)c4ccc(C)cc4)=N5)n3C2=O)cc1`, the TGI in [2], in assay [3], in assay [4], in assay [5], in [6] and in assay [8] was > 100 µM each time.

Consider `O=C(CCC(=O)C1CCC/C1=N/O)Nc1ccc(Cl)cc1` (configuration not stated), for which the TGI in assay [1], in assay [2], in assay [3], in assay [4], in assay [6] and in assay [7] was > 100 µM each time. Besides, the TGI in assay [8] is > 100 µM.

In the case of `Cc1cccc2c(O)cc(=O)oc12`, the TGI in [2], in assay [4], in assay [5], in assay [6], in assay [7] and in [8] was > 100 µM each time.

Consider `O=NN(CCCl)C(=O)NC1CCC(CC2CCC(NC(=O)N(CCCl)N=O)CC2)CC1` (configuration not stated), for which the TGI in assay [1] was 85.5 µM; in [2], > 56.2 µM; in assay [9] it was 5.03 µM; in assay [3], > 100 µM; in assay [4], 19.8 µM; in [5], > 55.1 µM. Further, the TGI was > 62.4 µM in assay [6], > 87.3 µM in [7] and > 100 µM in [8].

As to `O=C1/C(=C/c2ccc(Br)cc2)CCC/C1=C\c1ccc(Br)cc1`, the TGI worked out at 15.7 µM in assay [1]; 78.6 µM in [2]; 18.1 µM in [3]; 52 µM in assay [4]; 38.7 µM in [5]; 31.6 µM in [6]. For the same compound, the values for the TGI in [7] and in assay [8] were 58.3 µM and > 100 µM, respectively.

Consider `O=C(NC(=O)c1ccccc1[N+](=O)[O-])Nc1ccc(Oc2ncc(Cl)cn2)c(C(F)(F)F)c1`, for which the TGI was 0.669 µM in assay [1]; > 100 µM in [2]; 1.62 µM in assay [4]; > 100 µM in assay [6]; > 100 µM in assay [7]; < 0.0231 µM in [8].

Regarding `Cn1c(=O)c2/c(n(C)c1=O)=N\C=c1\c(=O)n(C)c(=O)n(C)\c1=N\C=2`, the TGI in assay [2], in assay [3], in assay [5], in assay [6], in assay [7] and in [8] was > 100 µM in each case.

As for `CNCCN=c1ccc2c3c1c(O)c1c(O)ccc(=O)c1c3[nH]n2CCNCCO`, the GI50 in assay [1] is 0.053 µM and 0.0978 µM; in [9], 0.751 µM. Moreover, the TGI in assay [1] is 1.59 µM and 0.336 µM; in assay [2], 2.18 µM and 7.73 µM and 6.04 µM; in assay [10], 2.7 µM; in assay [9], 16.3 µM and 32.9 µM; in assay [5], 2.91 µM and 0.834 µM; in assay [6], 11.6 µM and 11.9 µM and 19.6 µM. Also, the TGI in assay [7] is 10.5 µM; in [8], 6.7 µM and 12.2 µM and 1.51 µM.

As for `OCCN1CCN(CC/C=C2/c3ccccc3Sc3ccc(Cl)cc32)CC1`, the TGI in [1] was determined as 18.9 µM; in assay [2] it was 24 µM; in [4], 25.4 µM; in assay [5] it was 30.5 µM; in assay [6] it was 26.4 µM; in assay [7], 30.2 µM. In assay [8], the TGI was 5.4 µM.

On to `CCN(CC)C(=S)[S][Bi]([S]C(=S)N(CC)CC)[S]C(=S)N(CC)CC`, for which the GI50 is 0.056 µM in assay [1]; 0.202 µM in assay [2]; 0.728 µM in assay [10]; 0.0193 µM in assay [5]; 0.0404 µM in assay [6]; 0.598 µM in assay [7]. For the same compound, in assay [8], the GI50 is 0.128 µM. The TGI in assay [1] turned out to be 0.221 µM; in assay [2], 0.375 µM; in assay [10], 2.04 µM; in [5] it was 0.0444 µM; in assay [6] it was 0.208 µM; in [7], 2.13 µM. Besides, in assay [8], the TGI amounted to 1.23 µM.

In the case of `CCC[CH2][Sn]1([CH2]CCC)[O]CC(C)[O]1` (configuration not stated), the GI50 was 1.26 µM in assay [1]; 0.99 µM in assay [4]; 1.11 µM in [5]; 1.47 µM in assay [6]; 0.301 µM in assay [7]; 2.53 µM in assay [8]. For the same compound, the TGI in [1] was determined as 2.66 µM; in assay [4], 2.33 µM; in assay [5], 2.49 µM; in assay [6] it was 3.32 µM; in assay [7], 0.909 µM; in assay [8], 6.86 µM.

For `C[C@]12CCC(=O)C=C1CC[C@@H]1C2CC[C@]2(C)c3nn(-c4ccccc4)nc3CC12` (some centres not stated), the TGI in assay [1], in [4], in [5], in assay [6], in assay [7] and in assay [8] was > 100 µM throughout.

For `CCc1cccc(C)c1NC(=O)CC1C(=O)Nc2ccccc2S1(=O)=O` (configuration not stated), the TGI came to 25 µM in assay [1]; 33 µM in assay [3]; 26.2 µM in [4]; 34.1 µM in assay [5]; 40.4 µM in [6]; 53.7 µM in assay [7]. This compound showed a TGI in assay [8] of 34.2 µM.

Consider `O=C(/C=C\c1cccc2ccccc12)c1cccc2ccccc12`, for which the GI50 is 4.03 µM in assay [1], 10.5 µM in assay [3], 3.43 µM in assay [6] and 3.96 µM in assay [8]. In addition, the TGI came to 24.7 µM in assay [1], 26.4 µM in assay [3], 15.8 µM in assay [6] and 15 µM in assay [8].

With `CCN(CC)CC(=N)N(CC)c1ccccc1`, the TGI in assay [2], in assay [4], in assay [5], in assay [6], in assay [7] and in [8] was > 100 µM each time.

In the case of `Cn1cccc1/C=C/c1cc(Br)c(/C=C/c2cccn2C)cc1Br`, the TGI was determined as 38.3 µM in [1]; 28 µM in assay [2]; 49.4 µM in assay [3]; 35.2 µM in assay [5]; 4.97 µM in assay [6]; 58.4 µM in assay [8].

For `CCN(CC)CCNC(=O)c1cccc2nc3ccccc3nc12`, the TGI in [1] is > 100 µM; in assay [2], > 63.4 µM; in assay [5], 22.3 µM; in assay [6], > 100 µM; in assay [7] it was 71.2 µM; in assay [8], 67.8 µM.

Turning to `CN(C)CC/C(=N\Nc1ccc(Cl)cc1Cl)c1ccccc1`, the TGI in assay [1] stood at 27 µM; in [2], 28.7 µM; in assay [5] it was 27.6 µM; in assay [6] it was 23.8 µM; in assay [7], 27.6 µM; in assay [8], 27.5 µM.
